Converted amounts (≈) assume the structure as drawn.

Consider nine compounds from US5420140A, “Difluorinated quinolones useful for treating bacterial infections” (Bouchara S.A., priority 1991, dated 1995).

Test [1] has as its system Streptococcus faecalis ATCC 8043. Kind of test: Determination of MIC and MBC by microdilution method, Streptococcus faecalis ATCC 8043. It counts as cell-based. Particulars: for MBC / MIC: Enterococcus faecalis; for MBC: ATCC8043, S. faecalis ATCC 8043, read-out: Minimal bactericidal concentration (MBC); for MIC: ATCC8043, read-out: Minimal inhibitory concentration (MIC); for MIC / Minimal bactericidal concentration (MBC) / Minimal inhibitory concentration (MIC): S. faecalis ATCC 8043; for MIC / Minimal inhibitory concentration (MIC): Mueller-Hinton broth, 18 hours at 37°. As to the method: (§1) The compound have been tested towards 7 reference strains:
Streptococcus faecalis ATCC 8043
(§2) The preparation of these mother liquors has been performed and vary depending on the molecules as a function of the solubility criterions. Inoculation has been done by adding in each will, 10 μl of a dilution in saline of 18 hours old broth in a brain-heart broth, such as each well contains about 10^6 bacterias/ml. […]

The subject of test [2] is Pseudomonas aeruginosa ATCC 22853. Kind of test: Determination of MIC and MBC by microdilution method, Pseudomonas aeruginosa ATCC 22853. Particulars: for MIC / MBC: Pseudomonas aeruginosa; for MIC: ATCC22853, 18 h, read-out: Minimal inhibitory concentration (MIC); for MIC / Minimal bactericidal concentration (MBC) / Minimal inhibitory concentration (MIC): P. aeruginosa ATCC 22853; for MIC / Minimal inhibitory concentration (MIC): Mueller-Hinton broth, 18 hours at 37°; for MBC: ATCC22853, P. aeruginosa ATCC 22853, read-out: Minimal bactericidal concentration (MBC). It counts as cell-based. As to the method:
as §1
Pseudomonas aeruginosa ATCC 22853
as §2

The test system of test [3] is Escherichia coli ATCC 25922. The experiment in a line: Determination of MIC and MBC by microdilution method, Escherichia coli ATCC 25922. Particulars: E. coli ATCC 25922; for MIC / MBC: Escherichia coli, ATCC25922; for MIC / Minimal inhibitory concentration (MIC): Mueller-Hinton broth, 18 hours at 37°; for MIC: read-out: Minimal inhibitory concentration (MIC); for MBC: read-out: Minimal bactericidal concentration (MBC). In kind it is cell-based. As to the method:
as §1
Escherichia coli ATCC 25922
(§3) The determination of minimal inhibitory concentrations (MIC) has been performed using a microdution method (microplates and inoculator Dynatech) in liquid medium (MUELLER-HINTON broth) under a volume of 100 μl and for a range of concentrations from 128 to 0.06 mg/l, prepared from a mother liquor of antibiotics titrating 512 mg/l. The preparation of these mother liquors has been performed and vary depending on the molecules as a function of the solubility criterions. Inoculation has been done by adding in each will, 10 μl of a dilution in saline of 18 hours old broth in a brain-heart broth, such as each well contains about 10^6 bacterias/ml.
(§4) The Minimal Inhibitory Concentrations are read as the first concentration of antibiotic which will not give a growth macroscopically detectable after 18 hours incubating at 37°.
(In general: In broth dilution the organism is exposed to a series of concentrations in liquid medium.)

Test [4] relates to Acinetobacter Baumanii ATCC 17904. The experiment in a line: Determination of MIC and MBC by microdilution method, Acinetobacter. It counts as cell-based. As to conditions: for MIC / MBC: Acinetobacter baumannii; for MIC: ATCC17904, 18 h, read-out: Minimal inhibitory concentration (MIC); for MIC / Minimal bactericidal concentration (MBC) / Minimal inhibitory concentration (MIC): Acinetobacter Baumanii ATCC 17904; for MIC / Minimal inhibitory concentration (MIC): Mueller-Hinton broth, 18 hours at 37°; for MBC: ATCC17904, Acinetobacter Baumanii ATCC 17904, read-out: Minimal bactericidal concentration (MBC). As for the experimental part:
The compound have been tested towards 7 reference strains: […]
as §3, §4

The subject of test [5] is Bacillus subtilis ATCC 9372. The experiment in a line: Determination of MIC and MBC by microdilution method, Bacillus subtilis ATCC 9372. In kind it is cell-based. As to the method:
as §1
Bacillus subtilis ATCC 9372
as §3, §4

Test [6] relates to Staphylococcus aureus ATCC 25923. Kind of test: Determination of MIC and MBC by microdilution method, Staphylococcus aureus ATCC 25923. In kind it is cell-based. Particulars: for MIC / MBC: Staphylococcus aureus; for MIC: ATCC25923, 18 h, read-out: Minimal inhibitory concentration (MIC); for MIC / Minimal bactericidal concentration (MBC) / Minimal inhibitory concentration (MIC): S. aureus ATCC 25923; for MIC / Minimal inhibitory concentration (MIC): Mueller-Hinton broth, 18 hours at 37°; for MBC: ATCC25923, S. aureus ATCC 25923, read-out: Minimal bactericidal concentration (MBC). As for the experimental part: as §1
Staphylococcus aureus ATCC 25923
as §3, §4

Another test deals with S. aureus CB-951. Kind of test: Determination of MIC and MBC by microdilution method, S. aureus CB-951. In kind it is cell-based, Staphylococcus aureus. As to conditions: erythromycinolincomycino, pefloxacino resistant; for MIC / MBC: Staphylococcus aureus; for MIC: CB951, 18 h, read-out: Minimal inhibitory concentration (MIC); for MIC / Minimal bactericidal concentration (MBC) / Minimal inhibitory concentration (MIC): S. aureus CB-951, methicillino; for MIC / Minimal inhibitory concentration (MIC): Mueller-Hinton broth, 18 hours at 37°; for MBC: CB951, S. aureus CB-951, methicillino, read-out: Minimal bactericidal concentration (MBC). As to the method:
as §1
Staphylococcus aureus CB 951
as §3, §4

For the compound `C=CCn1cc(C(=O)O)c(=O)c2cc(F)c(N3CCC(CN)CC3)c(F)c21` [Compound 6, 7-(4-aminomethylpiperidinyl-1) 6,8-difluoro 1-allyl 4-oxo 1,4-dihydroquinoleinyl-3 carboxylic acid], the MBC in test [1] amounted to 4 µg/mL (≈ 10.6 µM); in test [2], 16 µg/mL (≈ 42.4 µM); in test [3], 2 µg/mL (≈ 5.3 µM); in test [4] it was 2 µg/mL (≈ 5.3 µM); in test [5] (ATCC9372, read-out: Minimal bactericidal concentration (MBC)) it was 2 µg/mL (≈ 5.3 µM); in test [6], 2 µg/mL (≈ 5.3 µM). Also, the MBC in the test with S. aureus CB-951 was determined as 64 µg/mL (≈ 170 µM). The MIC in test [1] was 1 µg/mL (≈ 2.65 µM); in test [2], 8 µg/mL (≈ 21.2 µM); in test [3], 1 µg/mL (≈ 2.65 µM); in test [4], 1 µg/mL (≈ 2.65 µM); in test [5] (ATCC9372, Mueller-Hinton broth, 18 hours at 37°, read-out: Minimal inhibitory concentration (MIC)), 1 µg/mL (≈ 2.65 µM); in test [6], 1 µg/mL (≈ 2.65 µM). Besides, the MIC with S. aureus CB-951 was determined as 32 µg/mL (≈ 84.8 µM).
For the compound `CCC(=O)NCC1CCN(c2c(F)cc3c(=O)c(C(=O)O)cn(CCF)c3c2F)CC1` [Compound 8, 7-[(4-propionylaminomethyl)piperidinyl-1] 6,8-difluoro1-fluoroethyl 4-oxo 1,4-dihydroquinoleinyl-3 carboxylic acid], the MBC in test [1] was over 12 µg/mL; in test [2], over 12 µg/mL; in test [3], over 12 µg/mL; in test [4], 0.7 µg/mL (≈ 1.59 µM); in test [6], 0.3 µg/mL (≈ 0.683 µM); with S. aureus CB-951, 0.7 µg/mL (≈ 1.59 µM). For the same compound, the MIC is 6 µg/mL (≈ 13.7 µM) in test [1]; over 12 µg/mL in test [2]; 6 µg/mL (≈ 13.7 µM) in test [3]; 0.3 µg/mL (≈ 0.683 µM) in test [4]; 0.15 µg/mL (≈ 0.341 µM) in test [6]; 0.3 µg/mL (≈ 0.683 µM) with S. aureus CB-951.
`CCn1cc(C(=O)O)c(=O)c2cc(F)c(N3CCC(CN)CC3)c(F)c21` [Compound a, 7-(4-aminomethylpiperidinyl-1) 6,8-difluoro 1-ethyl 4-oxo 1,4-dihydroquinoleinyl-3 carboxylic acid]: the “Minimal bactericidal concentration (MBC)” value in test [1] was 0,5 μg/ml; in test [2], 4 µg/mL (≈ 10.9 µM); in test [3] it was 0,5 μg/ml; in test [4], 0,25 μg/ml; in test [6] it was 0,25 μg/ml; with S. aureus CB-951, 2 µg/mL (≈ 5.47 µM). In addition, the “Minimal inhibitory concentration (MIC)” value in test [1] was 0,5 μg/ml; in test [2], 2 µg/mL (≈ 5.47 µM); in test [3], 0,5 μg/ml; in test [4], 0,25 μg/ml; in test [6], 0,25 μg/ml; in the test on S. aureus CB-951 it was 2 µg/mL (≈ 5.47 µM).
In the case of `CCOC(=O)c1ccc(NC(=O)NCC2CCN(c3c(F)cc4c(=O)c(C(=O)O)cn(CC)c4c3F)CC2)cc1` [Compound 15, 7-[4-(4-ethoxycarbonylphenyl)aminocarbonylaminomethylpiperidinyl-1] 6,8-difluoro 1-ethyl], the MBC in test [1] is over 16 µg/mL; in test [2], over 16 µg/mL; in test [3], over 16 µg/mL; in test [4] it was 0.25 µg/mL (≈ 0.449 µM); in test [6] it was 0.12 µg/mL (≈ 0.216 µM); with S. aureus CB-951, 2 µg/mL (≈ 3.59 µM). Also, the MIC was over 16 µg/mL in test [1]; over 16 µg/mL in test [2]; over 16 µg/mL in test [3]; 0.12 µg/mL (≈ 0.216 µM) in test [4]; 0.12 µg/mL (≈ 0.216 µM) in test [6]; 1 µg/mL (≈ 1.8 µM) with S. aureus CB-951.
In the case of `CCn1cc(C(=O)O)c(=O)c2cc(F)c(N3CCC(CNC(=O)Nc4cccc(F)c4)CC3)c(F)c21` [Compound 13, 7-[4-(3-fluorophenyl)aminocarbonylaminomethylpiperidinyl-1] 6,8-difluoro 1-ethyl], the MBC was over 16 µg/mL in test [1]; over 16 µg/mL in test [2]; over 16 µg/mL in test [3]; 0.06 µg/mL (≈ 0.119 µM) in test [4]; 0.25 µg/mL (≈ 0.498 µM) in test [6]; 0.5 µg/mL (≈ 0.995 µM) with S. aureus CB-951. Besides, the MIC was over 16 µg/mL in test [1]; over 16 µg/mL in test [2]; over 16 µg/mL in test [3]; 0.06 µg/mL (≈ 0.119 µM) in test [4]; 0.12 µg/mL (≈ 0.239 µM) in test [6]; 0.25 µg/mL (≈ 0.498 µM) in the test on S. aureus CB-951.
Turning to `NCC1CCN(c2c(F)cc3c(=O)c(C(=O)O)cn(Cc4ccccc4Cl)c3c2F)CC1` [Compound 5, 7-(4-aminomethylpiperidinyl-1) 6,8-difluoro 1-(2-chlorobenzyl) 4-oxo 1,4-dihydroquinoleinyl-3 carboxylic acid], the MBC in test [1] was over 16 µg/mL; in test [2], over 16 µg/mL; in test [3], 8 µg/mL (≈ 17.3 µM); in test [4], 8 µg/mL (≈ 17.3 µM); in test [6], 4 µg/mL (≈ 8.66 µM); in the test with S. aureus CB-951, over 16 µg/mL. For the same compound, the MIC was 16 µg/mL (≈ 34.6 µM) in test [1]; over 16 µg/mL in test [2]; 4 µg/mL (≈ 8.66 µM) in test [3]; 4 µg/mL (≈ 8.66 µM) in test [4]; 2 µg/mL (≈ 4.33 µM) in test [6]; over 16 µg/mL in the test on S. aureus CB-951.
Turning to `CCn1cc(C(=O)O)c(=O)c2cc(F)c(N3CCC(CNC(=O)Nc4ccccc4)CC3)c(F)c21` [Compound 10, 7-[(4-Phenylaminocarboxamidomethyl)piperidinyl-1] 6,8-difluoro 1-ethyl 4-oxo 1,4-dihydroquinoleinyl-3 carboxylic acid], the MBC in test [1] was over 25 µg/mL; in test [2], 6 µg/mL (≈ 12.4 µM); in test [3], 0.7 µg/mL (≈ 1.44 µM); in test [4] it was 0.7 µg/mL (≈ 1.44 µM); in test [6], 0.3 µg/mL (≈ 0.619 µM); with S. aureus CB-951, 1.5 µg/mL (≈ 3.1 µM). In addition, the MIC in test [1] was found to be 25 µg/mL (≈ 51.6 µM); in test [2] it was 3 µg/mL (≈ 6.19 µM); in test [3], 0.7 µg/mL (≈ 1.44 µM); in test [4], 0.3 µg/mL (≈ 0.619 µM); in test [6], 0.15 µg/mL (≈ 0.31 µM); with S. aureus CB-951, 0.3 µg/mL (≈ 0.619 µM).
Turning to `CCn1cc(C(=O)O)c(=O)c2cc(F)c(N3CCC(CN)CC3)c(F)c21` [Compound b, 7-(4-aminomethylpiperidinyl-1) 6,8-difluoro 1-ethyl 4-oxo 1,4-dihydroquinoleinyl-3 carboxylic acid], the “Minimal bactericidal concentration (MBC)” value in test [1] is 1 µg/mL (≈ 2.74 µM); in test [2], 8 µg/mL (≈ 21.9 µM); in test [3] it was 0,5 μg/ml; in test [4] it was 0,5 μg/ml; in test [6] it was 0,5 μg/ml; in the test on S. aureus CB-951 it was 4 µg/mL (≈ 10.9 µM). Besides, the “Minimal inhibitory concentration (MIC)” value in test [1] is 0,5 μg/ml; in test [2] it was 4 µg/mL (≈ 10.9 µM); in test [3], 0,5 μg/ml; in test [4], 0,5 μg/ml; in test [6], 0,5 μg/ml; with S. aureus CB-951, 4 µg/mL (≈ 10.9 µM).
As for `CCn1cc(C(=O)O)c(=O)c2cc(F)c(N3CCC(CNC(=O)Nc4ccc(Cl)c(Cl)c4)CC3)c(F)c21` [Compound 14, 7-[4-(3,4-dichlorophenyl)aminocarbonylaminomethylpiperidinyl-1] 6,8-difluoro 1-ethyl], the MBC in test [1] is over 16 µg/mL; in test [2], over 16 µg/mL; in test [3] it was over 16 µg/mL; in test [4], 8 µg/mL (≈ 14.5 µM); in test [6] it was 8 µg/mL (≈ 14.5 µM); in the test on S. aureus CB-951 it was over 16 µg/mL. Besides, the MIC in test [1] was over 16 µg/mL; in test [2], over 16 µg/mL; in test [3], over 16 µg/mL; in test [4] it was 4 µg/mL (≈ 7.23 µM); in test [6], 2 µg/mL (≈ 3.61 µM); with S. aureus CB-951 it was 16 µg/mL (≈ 28.9 µM).
